# Numbers after ± are expanded uncertainties.
# Settings: Liquid, Vibrating tube method
structure (smiles),measurement,setting,value
"FC(C(F)(F)F)C(F)(F)F [1,1,1,2,3,3,3-heptafluoropropane]",mass density,"303.14 K, 32887 kPa",1525.2 ± 1.8 kg/m3
same,mass density,"303.14 K, 32920 kPa",1525.2 ± 1.8 kg/m3
same,mass density,"303.14 K, 32949 kPa",1525.4 ± 1.8 kg/m3
same,mass density,"303.14 K, 32977 kPa",1525.5 ± 1.8 kg/m3
same,mass density,"303.14 K, 33020 kPa",1525.5 ± 1.8 kg/m3
same,mass density,"303.14 K, 33054 kPa",1525.6 ± 1.8 kg/m3
same,mass density,"303.14 K, 33098 kPa",1525.7 ± 1.8 kg/m3
same,mass density,"303.14 K, 33133 kPa",1525.9 ± 1.8 kg/m3
same,mass density,"303.14 K, 33172 kPa",1526 ± 1.8 kg/m3
same,mass density,"303.14 K, 33200 kPa",1526.1 ± 1.8 kg/m3
same,mass density,"303.14 K, 33239 kPa",1526.2 ± 1.8 kg/m3
same,mass density,"303.14 K, 33268 kPa",1526.3 ± 1.8 kg/m3
same,mass density,"303.14 K, 33306 kPa",1526.5 ± 1.8 kg/m3
same,mass density,"303.14 K, 33345 kPa",1526.6 ± 1.8 kg/m3
same,mass density,"303.14 K, 33378 kPa",1526.7 ± 1.8 kg/m3
same,mass density,"303.14 K, 33413 kPa",1526.7 ± 1.8 kg/m3
same,mass density,"303.14 K, 33457 kPa",1526.9 ± 1.8 kg/m3
same,mass density,"303.14 K, 33496 kPa",1527.1 ± 1.8 kg/m3
same,mass density,"303.14 K, 33537 kPa",1527.1 ± 1.8 kg/m3
same,mass density,"303.14 K, 33567 kPa",1527.3 ± 1.8 kg/m3
same,mass density,"303.14 K, 33615 kPa",1527.5 ± 1.8 kg/m3
same,mass density,"303.14 K, 33644 kPa",1527.5 ± 1.8 kg/m3
same,mass density,"303.14 K, 33683 kPa",1527.6 ± 1.8 kg/m3
same,mass density,"303.14 K, 33717 kPa",1527.8 ± 1.8 kg/m3
same,mass density,"303.14 K, 33758 kPa",1527.8 ± 1.8 kg/m3
same,mass density,"303.14 K, 33793 kPa",1527.9 ± 1.8 kg/m3
same,mass density,"303.14 K, 33838 kPa",1528 ± 1.8 kg/m3
same,mass density,"303.14 K, 33877 kPa",1528.2 ± 1.8 kg/m3
same,mass density,"303.14 K, 33912 kPa",1528.4 ± 1.8 kg/m3
same,mass density,"303.14 K, 34122 kPa",1529 ± 1.8 kg/m3
same,mass density,"303.14 K, 34158 kPa",1529 ± 1.8 kg/m3
same,mass density,"303.14 K, 34201 kPa",1529.1 ± 1.8 kg/m3
same,mass density,"303.14 K, 34250 kPa",1529.3 ± 1.8 kg/m3
same,mass density,"303.14 K, 34300 kPa",1529.4 ± 1.8 kg/m3
same,mass density,"303.14 K, 34356 kPa",1529.6 ± 1.8 kg/m3
same,mass density,"303.14 K, 34400 kPa",1529.8 ± 1.8 kg/m3
same,mass density,"303.14 K, 34442 kPa",1529.9 ± 1.8 kg/m3
same,mass density,"303.14 K, 34476 kPa",1529.9 ± 1.8 kg/m3
same,mass density,"303.14 K, 34501 kPa",1530.1 ± 1.8 kg/m3
same,mass density,"303.14 K, 34513 kPa",1530 ± 1.8 kg/m3
same,mass density,"303.14 K, 34522 kPa",1530.1 ± 1.8 kg/m3
same,mass density,"303.14 K, 34526 kPa",1530.1 ± 1.8 kg/m3
same,mass density,"303.15 K, 540 kPa",1366.5 ± 1.5 kg/m3
same,mass density,"303.15 K, 560 kPa",1366.8 ± 1.5 kg/m3
same,mass density,"303.15 K, 580 kPa",1367 ± 1.5 kg/m3
same,mass density,"303.15 K, 600 kPa",1367.1 ± 1.5 kg/m3
same,mass density,"303.15 K, 630 kPa",1367.3 ± 1.5 kg/m3
same,mass density,"303.15 K, 650 kPa",1367.5 ± 1.5 kg/m3
same,mass density,"303.15 K, 680 kPa",1367.6 ± 1.5 kg/m3
same,mass density,"303.15 K, 700 kPa",1368 ± 1.5 kg/m3
same,mass density,"303.15 K, 720 kPa",1368.1 ± 1.5 kg/m3
same,mass density,"303.15 K, 740 kPa",1368.3 ± 1.5 kg/m3
same,mass density,"303.15 K, 750 kPa",1368.5 ± 1.5 kg/m3
same,mass density,"303.15 K, 780 kPa",1368.7 ± 1.5 kg/m3
same,mass density,"303.15 K, 800 kPa",1368.9 ± 1.5 kg/m3
same,mass density,"303.15 K, 830 kPa",1369.2 ± 1.5 kg/m3
same,mass density,"303.15 K, 850 kPa",1369.3 ± 1.5 kg/m3
same,mass density,"303.15 K, 870 kPa",1369.5 ± 1.5 kg/m3
same,mass density,"303.15 K, 900 kPa",1369.8 ± 1.5 kg/m3
same,mass density,"303.15 K, 920 kPa",1369.9 ± 1.5 kg/m3
same,mass density,"303.15 K, 950 kPa",1370.1 ± 1.5 kg/m3
same,mass density,"303.15 K, 980 kPa",1370.4 ± 1.5 kg/m3
same,mass density,"303.15 K, 1000 kPa",1370.7 ± 1.5 kg/m3
same,mass density,"303.15 K, 1030 kPa",1370.9 ± 1.5 kg/m3
same,mass density,"303.15 K, 1060 kPa",1371.1 ± 1.5 kg/m3
same,mass density,"303.15 K, 1090 kPa",1371.4 ± 1.5 kg/m3
same,mass density,"303.15 K, 1110 kPa",1371.6 ± 1.5 kg/m3
same,mass density,"303.15 K, 1139 kPa",1371.8 ± 1.5 kg/m3
same,mass density,"303.15 K, 1161 kPa",1372 ± 1.5 kg/m3
same,mass density,"303.15 K, 1177 kPa",1372.1 ± 1.5 kg/m3
same,mass density,"303.15 K, 1199 kPa",1372.3 ± 1.5 kg/m3
same,mass density,"303.15 K, 1213 kPa",1372.5 ± 1.5 kg/m3
same,mass density,"303.15 K, 1250 kPa",1372.8 ± 1.5 kg/m3
same,mass density,"303.15 K, 1267 kPa",1372.9 ± 1.5 kg/m3
same,mass density,"303.15 K, 1284 kPa",1373.1 ± 1.5 kg/m3
same,mass density,"303.15 K, 1299 kPa",1373.1 ± 1.5 kg/m3
same,mass density,"303.15 K, 1317 kPa",1373.4 ± 1.5 kg/m3
same,mass density,"303.15 K, 1339 kPa",1373.5 ± 1.5 kg/m3
same,mass density,"303.15 K, 1354 kPa",1373.7 ± 1.5 kg/m3
same,mass density,"303.15 K, 1374 kPa",1373.9 ± 1.5 kg/m3
same,mass density,"303.15 K, 1395 kPa",1374.1 ± 1.5 kg/m3
same,mass density,"303.15 K, 1417 kPa",1374.2 ± 1.5 kg/m3
same,mass density,"303.15 K, 1440 kPa",1374.4 ± 1.5 kg/m3
same,mass density,"303.15 K, 1464 kPa",1374.6 ± 1.5 kg/m3
same,mass density,"303.15 K, 1481 kPa",1374.7 ± 1.5 kg/m3
same,mass density,"303.15 K, 1505 kPa",1375 ± 1.5 kg/m3
same,mass density,"303.15 K, 1522 kPa",1375 ± 1.5 kg/m3
same,mass density,"303.15 K, 1548 kPa",1375.3 ± 1.5 kg/m3
same,mass density,"303.15 K, 1568 kPa",1375.5 ± 1.5 kg/m3
same,mass density,"303.15 K, 1590 kPa",1375.6 ± 1.5 kg/m3
same,mass density,"303.15 K, 1608 kPa",1375.8 ± 1.5 kg/m3
same,mass density,"303.15 K, 1631 kPa",1375.9 ± 1.5 kg/m3
same,mass density,"303.15 K, 1645 kPa",1376.1 ± 1.5 kg/m3
same,mass density,"303.15 K, 1666 kPa",1376.5 ± 1.5 kg/m3
same,mass density,"303.15 K, 1689 kPa",1376.4 ± 1.5 kg/m3
same,mass density,"303.15 K, 1706 kPa",1376.6 ± 1.5 kg/m3
same,mass density,"303.15 K, 1732 kPa",1376.9 ± 1.5 kg/m3
same,mass density,"303.15 K, 1794 kPa",1377.4 ± 1.5 kg/m3
same,mass density,"303.15 K, 1812 kPa",1377.6 ± 1.5 kg/m3
same,mass density,"303.15 K, 1859 kPa",1377.8 ± 1.5 kg/m3
same,mass density,"303.15 K, 1883 kPa",1377.9 ± 1.5 kg/m3
same,mass density,"303.15 K, 1903 kPa",1378.3 ± 1.5 kg/m3
same,mass density,"303.15 K, 1924 kPa",1378.4 ± 1.5 kg/m3

# — the NIST ThermoML archive (doi:10.1021/je700260f)
